From PubChem BioAssay AID248 (DTP/NCI, 2004)
Several values for one entry are separate records, joined by “and”; a condition that tells them apart may be missing. Equal values may be shown once. Inconclusive results and toxic doses are left out.

System: L1210 leukemia ip in BDF1 mice, survival T/C
Test: NCI In Vivo Anticancer Drug Screen. Data for tumor model L1210 Leukemia (intraperitoneal) in B6D2F1 (BDF1) mice
Conditions: endpoint: mean survival time, higher = longer survival
In short: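 Antitumor effect is assessed in tumor-bearing animals. Survival in the compound arm is compared with a vehicle-dosed control arm and expressed as their quotient.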

[1] = dose: 50.0 mg/kg/injection, schedule: Q04DX003 (ip), vehicle: Klucel (hydroxypropylcellulose) (HPC)
[2] = dose: 100.0 mg/kg/injection, schedule: Q01DX009 (ip), vehicle: Klucel (hydroxypropylcellulose) (HPC)
[3] = dose: 100.0 mg/kg/injection, schedule: Q04DX003 (ip), vehicle: Klucel (hydroxypropylcellulose) (HPC)
[4] = dose: 200.0 mg/kg/injection, schedule: Q01DX009 (ip), vehicle: Klucel (hydroxypropylcellulose) (HPC)
[5] = dose: 200.0 mg/kg/injection, schedule: Q04DX003 (ip), vehicle: Klucel (hydroxypropylcellulose) (HPC)
[6] = dose: 400.0 mg/kg/injection, schedule: Q04DX003 (ip), vehicle: Klucel (hydroxypropylcellulose) (HPC)
[7] = dose: 50.0 mg/kg/injection, schedule: Q01DX009 (ip), vehicle: Klucel (hydroxypropylcellulose) (HPC)
[8] = dose: 100.0 mg/kg/injection, schedule: Q01DX001 (ip), vehicle: carboxymethylcellulose (CMC)
[9] = dose: 200.0 mg/kg/injection, schedule: Q01DX001 (ip), vehicle: carboxymethylcellulose (CMC)
[10] = dose: 400.0 mg/kg/injection, schedule: Q01DX001 (ip), vehicle: carboxymethylcellulose (CMC)
[11] = dose: 400.0 mg/kg/injection, schedule: Q01DX009 (ip), vehicle: Klucel (hydroxypropylcellulose) (HPC)

CC(C)(C)C(=O)C=C(C(F)(F)F)C(F)(F)F
T/C (dose: 6.25 mg/kg/injection, schedule: Q01DX009 (ip), vehicle: saline): 106 % of control | T/C (dose: 6.25 mg/kg/injection, schedule: Q04DX003 (ip), vehicle: saline): 100 % of control | T/C (dose: 12.5 mg/kg/injection, schedule: Q01DX009 (ip), vehicle: saline): 106 % of control | T/C (dose: 12.5 mg/kg/injection, schedule: Q04DX003 (ip), vehicle: saline): 97 % of control | T/C (dose: 25.0 mg/kg/injection, schedule: Q01DX009 (ip), vehicle: saline): 108 % of control | T/C (dose: 25.0 mg/kg/injection, schedule: Q04DX003 (ip), vehicle: saline): 105 % of control | T/C (dose: 50.0 mg/kg/injection, schedule: Q04DX003 (ip), vehicle: saline): 96 % of control and 105 % of control

CCN(CC)C(=O)Cn1cc(F)c(=O)[nH]c1=O
T/C (dose: 100.0 mg/kg/injection, schedule: Q04DX003 (ip), vehicle: saline with Tween-80): 98 % of control | T/C (dose: 100.0 mg/kg/injection, schedule: Q04DX003 (ip), vehicle: saline): 104 % of control | T/C (dose: 200.0 mg/kg/injection, schedule: Q04DX003 (ip), vehicle: saline with Tween-80): 101 % of control | T/C (dose: 200.0 mg/kg/injection, schedule: Q04DX003 (ip), vehicle: saline): 104 % of control | T/C (dose: 400.0 mg/kg/injection, schedule: Q04DX003 (ip), vehicle: saline with Tween-80): 106 % of control | T/C (dose: 400.0 mg/kg/injection, schedule: Q04DX003 (ip), vehicle: saline): 98 % of control

Cc1cc(C(=O)Nc2ccc(C3=NCCN3)cc2)ccc1C(=O)Nc1ccc(C2=NCCN2)cc1
T/C (dose: 3.75 mg/kg/injection, schedule: Q01DX Z (ip), vehicle: saline): 98 % of control | T/C (dose: 7.5 mg/kg/injection, schedule: Q01DX Z (ip), vehicle: saline): 102 % of control | T/C (dose: 15.0 mg/kg/injection, schedule: Q01DX Z (ip), vehicle: saline): 119 % of control | T/C (dose: 60.0 mg/kg/injection, schedule: Q01DX Z (ip), vehicle: saline): 196 % of control | T/C (dose: 120.0 mg/kg/injection, schedule: Q01DX Z (ip), vehicle: saline): 157 % of control | T/C (dose: 240.0 mg/kg/injection, schedule: Q01DX Z (ip), vehicle: saline): 175 % of control

CC(=O)C1C(=O)N(C)C(=O)N(C)C1=O
T/C (dose: 75.0 mg/kg/injection, schedule: Q01DX001 (ip), vehicle: carboxymethylcellulose (CMC)): 97 % of control | T/C (dose: 150.0 mg/kg/injection, schedule: Q01DX001 (ip), vehicle: carboxymethylcellulose (CMC)): 100 % of control | T/C (dose: 300.0 mg/kg/injection, schedule: Q01DX001 (ip), vehicle: carboxymethylcellulose (CMC)): 103 % of control

O=C(Nc1cccc(C(F)(F)F)c1)C(c1ccccc1)c1ccccc1
T/C [1]: 98 % of control | T/C [2]: 100 % of control | T/C [3]: 110 % of control | T/C [4]: 100 % of control | T/C [5]: 93 % of control | T/C [6]: 101 % of control

CC1(C)C(OC=O)C(C)(C)C1OC=O (stereo not drawn)
T/C (dose: 25.0 mg/kg/injection, schedule: Q01DX009 (ip), vehicle: Klucel (hydroxypropylcellulose) (HPC)): 100 % of control | T/C [7]: 93 % of control | T/C [2]: 94 % of control | T/C [3]: 96 % of control | T/C [5]: 98 % of control

COc1cc2c[n+](C)c3c4ccccc4ccc3c2cc1OC
T/C (dose: 100.0 mg/kg/injection, schedule: Q01DX001 (ip), vehicle: saline with Tween-80): 88 % of control | T/C (dose: 200.0 mg/kg/injection, schedule: Q01DX001 (ip), vehicle: saline with Tween-80): 88 % of control

CCc1ccc2c(c1)Nc1ccccc1S2
T/C [7]: 97 % of control | T/C [1]: 91 % of control | T/C [2]: 97 % of control | T/C [3]: 96 % of control | T/C [4]: 101 % of control | T/C [5]: 97 % of control | T/C [6]: 86 % of control

CCOC(=O)CCC(=O)N(C)CCc1ccc(OC)c(OC)c1
T/C (dose: 25.0 mg/kg/injection, schedule: Q04DX002 (ip), vehicle: Klucel (hydroxypropylcellulose) (HPC)): 117 % of control | T/C (dose: 50.0 mg/kg/injection, schedule: Q04DX002 (ip), vehicle: Klucel (hydroxypropylcellulose) (HPC)): 101 % of control | T/C (dose: 100.0 mg/kg/injection, schedule: Q04DX002 (ip), vehicle: Klucel (hydroxypropylcellulose) (HPC)): 101 % of control

CN1C(CSCC(F)(F)F)Nc2cc(Cl)c(S(N)(=O)=O)cc2S1(=O)=O (stereo not drawn)
T/C [8]: 108 % of control | T/C [9]: 106 % of control | T/C [10]: 103 % of control

O=c1c2ccccc2ccc2ccccc12
T/C (dose: 100.0 mg/kg/injection, schedule: Q01DX001 (ip), vehicle: Klucel (hydroxypropylcellulose) (HPC)): 103 % of control | T/C [2]: 97 % of control | T/C [3]: 100 % of control | T/C (dose: 200.0 mg/kg/injection, schedule: Q01DX001 (ip), vehicle: Klucel (hydroxypropylcellulose) (HPC)): 93 % of control | T/C [4]: 102 % of control | T/C [5]: 103 % of control | T/C (dose: 400.0 mg/kg/injection, schedule: Q01DX001 (ip), vehicle: Klucel (hydroxypropylcellulose) (HPC)): 103 % of control | T/C [11]: 100 % of control | T/C [6]: 105 % of control

CCOc1c(Br)cc(Br)cc1/C=N/NS(=O)(=O)c1ccc(C)cc1
T/C [7]: 103 % of control | T/C [2]: 105 % of control | T/C [3]: 101 % of control | T/C [5]: 109 % of control | T/C [6]: 92 % of control

CCCCCCCC(N)CC(=O)O (stereo not drawn)
T/C [2]: 105 % of control | T/C [4]: 97 % of control | T/C [11]: 107 % of control

Cc1ccc(C2(C(=O)O)CCCCC2)cc1
T/C [7]: 96 % of control | T/C [2]: 90 % of control | T/C [3]: 102 % of control | T/C [4]: 88 % of control | T/C [5]: 98 % of control

Nc1nc2c(ncn2C2OC(COP(=O)(O)OC3C(COP(=O)(O)O)OC(n4cnc5c(=O)[nH]c(N)nc54)C3O)C(O)C2O)c(=O)[nH]1 (stereo not drawn) (tested in a mixture with another compound)
T/C (dose: 2.5 mg/kg/injection, schedule: Q01DX009 (ip), vehicle: other): 108 % of control | T/C (dose: 5.0 mg/kg/injection, schedule: Q01DX009 (ip), vehicle: other): 105 % of control | T/C (dose: 10.0 mg/kg/injection, schedule: Q01DX009 (ip), vehicle: other): 111 % of control

O=[N+]([O-])c1ccc(-c2cccc(Cl)c2)c([N+](=O)[O-])c1
T/C [8]: 91 % of control | T/C [9]: 91 % of control | T/C [10]: 95 % of control

CC1=CCC(=O)O1
T/C (dose: 50.0 mg/kg/injection, schedule: Q01DX001 (ip), vehicle: saline): 100 % of control | T/C (dose: 50.0 mg/kg/injection, schedule: Q01DX009 (ip), vehicle: saline with Tween-80): 94 % of control | T/C (dose: 100.0 mg/kg/injection, schedule: Q01DX001 (ip), vehicle: saline): 100 % of control | T/C (dose: 100.0 mg/kg/injection, schedule: Q01DX009 (ip), vehicle: saline with Tween-80): 97 % of control | T/C (dose: 200.0 mg/kg/injection, schedule: Q01DX001 (ip), vehicle: saline): 97 % of control | T/C (dose: 200.0 mg/kg/injection, schedule: Q01DX009 (ip), vehicle: saline with Tween-80): 94 % of control | T/C (dose: 400.0 mg/kg/injection, schedule: Q01DX001 (ip), vehicle: saline): 97 % of control
